Assays:
[1] = biological target: T1, Proteasome Macropain subunit MB1 (Homo sapiens, UniProt P28074); assay: Inhibition of chymotrypsin-like activity of human erythrocyte-derived 20S proteasome using Suc-LLVY-AMC as substrate preincubated for 10 mins followed by substrate addition measured every 15 secs for 30 mins by fluorescence assay
T1 sequence (P28074 whole entry): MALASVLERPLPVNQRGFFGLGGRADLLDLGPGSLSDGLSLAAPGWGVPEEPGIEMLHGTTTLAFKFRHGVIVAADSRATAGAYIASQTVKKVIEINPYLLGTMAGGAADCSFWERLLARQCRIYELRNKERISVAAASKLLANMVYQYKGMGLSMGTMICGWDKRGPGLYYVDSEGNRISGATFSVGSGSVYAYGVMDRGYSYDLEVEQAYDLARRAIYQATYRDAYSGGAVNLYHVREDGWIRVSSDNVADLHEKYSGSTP

[2] = Inhibition of chymotrypsin-like activity of rabbit 20S proteasome using Suc-LLVY-AMC as substrate after 2 hrs by fluorescence assay; design: species or system Oryctolagus cuniculus
[3] = Inhibition of proteasome (unknown origin); design: species or system Homo sapiens

## CC[C@H](C)[C@H](NC(=O)[C@@H](NC(=O)C1OC(=O)C1C(C)C)C(C)C)C(=O)O (stereo not given in full)
[1]
  IC50: 360 nM

## CC[C@H](C)[C@@H]1C(=O)O[C@H]1C(=O)N[C@H]1C[C@H]1C[C@H](NC(=O)[C@H](C)N)C(=O)O [BELACTOSIN A]
[2]
  IC50: 210 nM

## CC[C@H](C)[C@@H]1C(=O)O[C@H]1C(=O)NCCC[C@H](NC(=O)[C@H](C)N)C(=O)O [BELACTOSIN C]
[2]
  IC50: 210 nM

## CC(C)C[C@H](NC(=O)[C@H](Cc1ccccc1)NC(=O)c1cnccn1)B(O)O [BORTEZOMIB]
[3]
  Ki: 0.6 nM

## CC(C)C[C@H](NC(=O)[C@H](CCc1ccccc1)NC(=O)CN1CCOCC1)C(=O)N[C@@H](Cc1ccccc1)C(=O)N[C@@H](CC(C)C)C(=O)[C@@]1(C)CO1 [CARFILZOMIB]
[3]
  IC50: 5 nM

Reference: ChEMBL document CHEMBL3576823, “Cystargolides, 20S Proteasome Inhibitors Isolated from Kitasatospora cystarginea” (J Nat Prod, 2015)
